Experiments:
Test in all cases: IA-DTB cysteine engagement
Type in all cases: binding
Conditions in all cases: 22Rv1 cells, 20 μM probe, 1 h, relative to DMSO
BCKDK_C118 = molecular target: T1, BCKDK_C118 (Homo sapiens, UniProt O14874)
T1 construct: endogenous in cells; host or cells: 22Rv1
Outline: (§1)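 Cells were treated in situ with electrophilic probes, then lysed, and the lysates (2 mg/mL protein) were labeled with IA-DTB for 1 h at ambient temperature. After reduction, alkylation and trypsin digestion, labeled peptides were streptavidin-enriched, TMT-labeled and fractionated. Engagement ratios are probe vs DMSO reporter intensities, averaged across replicates.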

XXYLT1_C10 = molecular target: T2, XXYLT1_C10 (Homo sapiens, UniProt Q8NBI6)
T2 construct: endogenous in cells; host or cells: 22Rv1
T2 sequence (Q8NBI6 1-393): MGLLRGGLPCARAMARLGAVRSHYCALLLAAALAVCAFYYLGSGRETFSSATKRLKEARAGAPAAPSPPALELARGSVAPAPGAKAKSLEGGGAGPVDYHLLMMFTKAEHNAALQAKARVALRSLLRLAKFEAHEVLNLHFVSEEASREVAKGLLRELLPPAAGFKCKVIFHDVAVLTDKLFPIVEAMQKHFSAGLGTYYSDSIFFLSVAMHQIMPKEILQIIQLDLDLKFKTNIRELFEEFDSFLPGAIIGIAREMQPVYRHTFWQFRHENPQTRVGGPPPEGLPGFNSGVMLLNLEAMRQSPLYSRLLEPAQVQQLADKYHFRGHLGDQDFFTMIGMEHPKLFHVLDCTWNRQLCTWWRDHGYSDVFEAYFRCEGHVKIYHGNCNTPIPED
Outline: as §1

CYP27B1_C163 = molecular target: T3, CYP27B1_C163 (Homo sapiens, UniProt O15528)
T3 construct: endogenous in cells; host or cells: 22Rv1
T3 sequence (O15528 1-508): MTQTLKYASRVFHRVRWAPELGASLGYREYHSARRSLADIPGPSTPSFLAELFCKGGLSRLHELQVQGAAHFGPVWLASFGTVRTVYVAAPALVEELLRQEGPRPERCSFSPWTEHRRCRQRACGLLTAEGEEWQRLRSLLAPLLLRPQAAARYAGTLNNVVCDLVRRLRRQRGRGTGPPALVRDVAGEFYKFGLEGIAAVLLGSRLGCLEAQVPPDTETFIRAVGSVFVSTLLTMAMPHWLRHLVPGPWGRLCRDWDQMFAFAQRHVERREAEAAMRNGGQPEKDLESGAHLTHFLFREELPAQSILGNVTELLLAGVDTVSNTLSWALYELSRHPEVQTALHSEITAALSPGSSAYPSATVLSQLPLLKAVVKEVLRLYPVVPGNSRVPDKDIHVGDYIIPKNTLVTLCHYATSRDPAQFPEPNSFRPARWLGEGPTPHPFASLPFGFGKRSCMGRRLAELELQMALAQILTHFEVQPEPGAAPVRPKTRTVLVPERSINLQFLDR
Outline: as §1

GRIN2C_C1105 = molecular target: T4, GRIN2C_C1105 (Homo sapiens, UniProt Q14957)
T4 construct: endogenous in cells; host or cells: 22Rv1
T4 sequence (Q14957 20-1233, other chains not shown): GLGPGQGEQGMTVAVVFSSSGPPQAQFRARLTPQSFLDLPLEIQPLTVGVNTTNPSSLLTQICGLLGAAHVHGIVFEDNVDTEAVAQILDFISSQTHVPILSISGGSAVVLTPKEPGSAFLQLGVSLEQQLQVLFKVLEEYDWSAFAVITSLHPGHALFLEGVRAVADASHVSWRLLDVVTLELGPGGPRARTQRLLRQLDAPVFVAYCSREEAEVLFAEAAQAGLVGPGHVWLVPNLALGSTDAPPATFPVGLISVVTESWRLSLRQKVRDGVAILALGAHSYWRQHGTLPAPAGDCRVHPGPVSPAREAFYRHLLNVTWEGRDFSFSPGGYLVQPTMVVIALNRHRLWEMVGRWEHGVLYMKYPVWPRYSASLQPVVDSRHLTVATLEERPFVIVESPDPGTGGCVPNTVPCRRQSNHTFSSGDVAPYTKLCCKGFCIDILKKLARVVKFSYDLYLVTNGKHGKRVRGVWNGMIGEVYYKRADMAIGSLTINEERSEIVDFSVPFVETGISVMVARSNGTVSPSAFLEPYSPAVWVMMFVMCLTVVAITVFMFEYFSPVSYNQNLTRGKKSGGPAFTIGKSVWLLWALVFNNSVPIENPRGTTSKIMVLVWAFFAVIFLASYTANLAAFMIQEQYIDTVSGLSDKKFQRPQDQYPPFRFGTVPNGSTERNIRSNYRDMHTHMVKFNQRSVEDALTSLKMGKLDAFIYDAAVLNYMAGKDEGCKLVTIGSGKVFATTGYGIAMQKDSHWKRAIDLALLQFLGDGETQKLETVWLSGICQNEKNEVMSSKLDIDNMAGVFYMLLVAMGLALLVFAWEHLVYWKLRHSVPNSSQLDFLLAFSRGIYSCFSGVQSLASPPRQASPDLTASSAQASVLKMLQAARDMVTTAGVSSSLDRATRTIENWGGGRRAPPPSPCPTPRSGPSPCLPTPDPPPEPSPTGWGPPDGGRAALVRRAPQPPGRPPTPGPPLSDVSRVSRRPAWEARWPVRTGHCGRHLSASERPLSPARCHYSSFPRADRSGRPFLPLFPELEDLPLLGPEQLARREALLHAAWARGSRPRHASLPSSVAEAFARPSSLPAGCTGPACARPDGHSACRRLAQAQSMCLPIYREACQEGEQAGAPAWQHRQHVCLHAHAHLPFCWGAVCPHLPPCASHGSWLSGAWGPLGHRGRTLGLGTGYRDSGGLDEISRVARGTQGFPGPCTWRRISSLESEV
Outline: as §1

DDX39B_C87 = molecular target: T5, DDX39B_C87 (Homo sapiens, UniProt Q13838)
T5 construct: endogenous in cells; host or cells: 22Rv1
T5 sequence (Q13838 whole entry): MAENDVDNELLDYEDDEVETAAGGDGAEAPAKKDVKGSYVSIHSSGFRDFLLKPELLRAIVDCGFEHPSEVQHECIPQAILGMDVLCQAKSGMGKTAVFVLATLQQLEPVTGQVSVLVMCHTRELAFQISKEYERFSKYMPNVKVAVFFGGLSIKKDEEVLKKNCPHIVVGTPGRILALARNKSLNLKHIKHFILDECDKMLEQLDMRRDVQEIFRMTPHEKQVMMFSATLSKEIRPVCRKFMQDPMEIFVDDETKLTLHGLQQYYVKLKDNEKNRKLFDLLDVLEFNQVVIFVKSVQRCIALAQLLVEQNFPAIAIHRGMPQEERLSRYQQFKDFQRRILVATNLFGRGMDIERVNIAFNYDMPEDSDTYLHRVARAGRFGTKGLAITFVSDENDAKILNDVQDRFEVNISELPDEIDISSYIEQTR
Outline: as §1

C=CC(=O)N1C[C@@H](c2ccc(Br)cc2)[C@H]1C(=O)Nc1cccc2cccnc12 [MY-1A, (2S,3R)-1-acryloyl-3-(4-bromophenyl)-N-(quinolin-8-yl)azetidine-2-carboxamide]
% engagement BCKDK_C118 (BCKDK_C118): 55.5% | % engagement XXYLT1_C10 (XXYLT1_C10): 76.5% | % engagement CYP27B1_C163 (CYP27B1_C163): 73% | % engagement GRIN2C_C1105 (GRIN2C_C1105): 78.5% | % engagement DDX39B_C87 (DDX39B_C87): 44.5%

C=CC(=O)N1C[C@H](c2ccc(Br)cc2)[C@@H]1C(=O)Nc1cccc2cccnc12 [MY-1B, (2R,3S)-1-acryloyl-3-(4-bromophenyl)-N-(quinolin-8-yl)azetidine-2-carboxamide]
% engagement BCKDK_C118 (BCKDK_C118): 57.75% | % engagement XXYLT1_C10 (XXYLT1_C10): 77% | % engagement CYP27B1_C163 (CYP27B1_C163): 89% | % engagement GRIN2C_C1105 (GRIN2C_C1105): 40.5% | % engagement DDX39B_C87 (DDX39B_C87): 37%

C=CC(=O)N1C[C@H](c2ccc(Br)cc2)[C@H]1C(=O)Nc1cccc2cccnc12 [MY-3A, (2S,3S)-1-acryloyl-3-(4-bromophenyl)-N-(quinolin-8-yl)azetidine-2-carboxamide]
% engagement BCKDK_C118 (BCKDK_C118): 43% | % engagement XXYLT1_C10 (XXYLT1_C10): 67% | % engagement CYP27B1_C163 (CYP27B1_C163): 73.5% | % engagement GRIN2C_C1105 (GRIN2C_C1105): 85% | % engagement DDX39B_C87 (DDX39B_C87): 23.5%

C=CC(=O)N1C[C@H](c2ccc(Br)cc2)[C@H]1C(=O)Nc1cccc2cccnc12 [MY-3B, (2S,3S)-1-acryloyl-3-(4-bromophenyl)-N-(quinolin-8-yl)azetidine-2-carboxamide]
% engagement BCKDK_C118 (BCKDK_C118): 78.5% | % engagement XXYLT1_C10 (XXYLT1_C10): 93% | % engagement CYP27B1_C163 (CYP27B1_C163): 100% | % engagement GRIN2C_C1105 (GRIN2C_C1105): 64.5% | % engagement DDX39B_C87 (DDX39B_C87): 67.5%

— patent US20250034216A1, “STEREOSELECTIVE COVALENT LIGANDS FOR ONCOGENIC AND IMMUNOLOGICAL PROTEINS” (The Scripps Research Institute, priority 2021, published 2025)
